Data from patent US20250145633A1, “SUBSTITUTED FURANOPYRIMIDINE COMPOUNDS AS PDE1 INHIBITORS” (Dart NeuroScience, LLC, priority 2017, published 2025).

molecular target: human PDE1B enzyme (Homo sapiens (Human), UniProt Q01064); test: IMAP TR-FRET PDE1B enzymatic assay; type: biochemical; settings: negative log of half-maximal molar inhibitory concentration; 200 nM FAM-cAMP; values given as bins
Procedure, shortened: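 Full-length GST-tagged human PDE1B (250 pg/well) in IMAP BSA buffer with 10 U/ml calmodulin and 2.5 mM CaCl2; compound pre-incubated 5 min at room temperature, then 200 nM (final) FAM-cAMP for 30 min. IMAP binding reagent/Tb added, 1 h; TR-FRET 520/490 ratio read. IC50 from sigmoidal dose-response fit.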

Structure (SMILES)	PDE1b (pIC50)
Cc1oc2ncnc(NC3(C)CC3)c2c1C(=O)NCc1ccc(OCF)cn1 [Example 11, N-((5-(Fluoromethoxy)pyridin-2-yl)methyl)-6-methyl-4-((1-methylcyclopropyl)amino)furo[2,3-d]pyrimidin-5-carboxamide]	>8
Cc1oc2ncnc(NC3(C)CC3)c2c1C(=O)NCc1ncc(Cl)cn1 [Example 716, N-[(5-Chloropyrimidin-2-yl)methyl]-6-methyl-4-[(1-methylcyclopropyl)amino]furo[2,3-d]pyrimidine-5-carboxamide]	>8
COc1ccc(C(C)NC(=O)c2c(C)oc3ncnc(NC4(C)CC4)c23)cc1C (stereo not shown) [Example 502, N-[1-(4-Methoxy-3-methylphenyl)ethyl]-6-methyl-4-[(1-methylcyclopropyl)amino]furo[2,3-d]pyrimidine-5-carboxamide]	>8
COc1cc(CNC(=O)c2c(C)oc3ncnc(NC4(C)CC4)c23)nc(C)n1 [Example 667, N-[(6-Methoxy-2-methylpyrimidin-4-yl)methyl]-6-methyl-4-[(1-methylcyclopropyl)amino]furo[2,3-d]pyrimidine-5-carboxamide]	>8
Cc1oc2ncnc(NC3(C)CC3)c2c1C(=O)N1CCNC(c2ccc(F)cc2)C1 (stereo not shown) [Example 536, 5-[3-(4-Fluorophenyl)piperazine-1-carbonyl]-6-methyl-N-(1-methylcyclopropyl)furo[2,3-d]pyrimidin-4-amine]	>8
Cc1oc2ncnc(NC3(C)CC3)c2c1C(=O)N1CCc2nc(C(C)(C)C)ncc2C1 [Example 41, 5-{2-tert-Butyl-5H,6H,7H,8H-pyrido[4,3-d]pyrimidine-6-carbonyl}-6-methyl-N-(1-methylcyclopropyl)furo[2,3-d]pyrimidin-4-amine]	>8
COc1nc(C2CC2)nc2c1CCN(C(=O)c1c(C)oc3ncnc(NC4(C)CC4)c13)C2 [Example 812, 5-{2-Cyclopropyl-4-methoxy-5H,6H,7H,8H-pyrido[3,4-d]pyrimidine-7-carbonyl}-6-methyl-N-(1-methylcyclopropyl)furo[2,3-d]pyrimidin-4-amine]	>8
Cc1nsc(NC(=O)c2c(C)oc3ncnc(NC4(C)CC4)c23)n1 [Example 454, 6-Methyl-N-(3-methyl-1,2,4-thiadiazol-5-yl)-4-[(1-methylcyclopropyl)amino]furo[2,3-d]pyrimidine-5-carboxamide]	>8

same assay, conditions: negative log of half-maximal molar inhibitory concentration; 200 nM FAM-cAMP; values given as bins; read-out: PDE1b (pIC50) (converted)

Structure (SMILES)	IC50 [nM]
Cc1oc2ncnc(NC3(C)CC3)c2c1C(=O)N1CCC2(CC1)OC(=O)Nc1ccc(F)cc12 [Example 386, 6-Fluoro-1′-{6-methyl-4-[(1-methylcyclopropyl)amino]furo[2,3-d]pyrimidine-5-carbonyl}-1,2-dihydrospiro[3,1-benzoxazine-4,4′-piperidine]-2-one]	10 to 100
Cc1oc2ncnc(NC3(C)CC3)c2c1C(=O)NCc1ccc(Cl)cc1F [Example 534, N-[(4-Chloro-2-fluorophenyl)methyl]-6-methyl-4-[(1-methylcyclopropyl)amino]furo[2,3-d]pyrimidine-5-carboxamide]	10 to 100
Cc1oc2ncnc(NC3(C)CC3)c2c1C(=O)N1CCc2ccncc2C1 [Example 637, 6-Methyl-N-(1-methylcyclopropyl)-5-(1,2,3,4-tetrahydro-2 7-naphthyridine-2-carbonyl)furo[2,3-d]pyrimidin-4-amine]	100 to 1000
COc1ccc(CNC(=O)c2c(C)oc3ncnc(NC4(C)CC4)c23)nn1 [Example 711, N-[(6-Methoxypyridazin-3-yl)methyl]-6-methyl-4-[(1-methylcyclopropyl)amino]furo[2,3-d]pyrimidine-5-carboxamide]	10 to 100
Cc1oc2ncnc(NC3(C)CC3)c2c1C(=O)N1CCCN(c2ccccn2)CC1 [Example 158, 6-Methyl-N-(1-methylcyclopropyl)-5-[4-(pyridin-2-yl)-1,4-diazepane-1-carbonyl]furo[2,3-d]pyrimidin-4-amine]	100 to 1000
Cc1oc2ncnc(NC3(C)CC3)c2c1C(=O)NC1CN(c2ccncn2)C1 [Example 720, 6-Methyl-4-[(1-methylcyclopropyl)amino]-N-[1-(pyrimidin-4-yl)azetidin-3-yl]furo[2,3-d]pyrimidine-5-carboxamide]	100 to 1000
Cc1oc2ncnc(NC3(C)CC3)c2c1C(=O)NCCc1c[nH]c2ccc(F)cc12 [Example 207, N-[2-(5-Fluoro-1H-indol-3-yl)ethyl]-6-methyl-4-[(1-methylcyclopropyl)amino]furo[2,3-d]pyrimidine-5-carboxamide]	10 to 100
Cc1oc2ncnc(NC3(C)CC3)c2c1C(=O)NC1CC1 [Example 124, N-Cyclopropyl-6-methyl-4-[(1-methylcyclopropyl)amino]furo[2,3-d]pyrimidine-5-carboxamide]	10 to 100
Cc1oc2ncnc(NC3(C)CC3)c2c1C(=O)NC1(C)CC1 [Example 89, 6-Methyl-N-(1-methylcyclopropyl)-4-[(1-methylcyclopropyl)amino]furo[2,3-d]pyrimidine-5-carboxamide]	10 to 100
Cc1oc2ncnc(NC3(C)CC3)c2c1C(=O)N1CCc2c(O)ccnc2C1 [Example 19, 7-{6-methyl-4-[(1-methylcyclopropyl)amino]furo[2,3-d]pyrimidine-5-carbonyl}-5,6,7,8-tetrahydro-1,7-naphthyridin-4-ol]	100 to 1000
Cc1oc2ncnc(NC3(C)CC3)c2c1C(=O)N1CCc2cnc(C3CC3)nc2C1 [Example 299, 5-{2-Cyclopropyl-5H,6H,7H,8H-pyrido[3,4-d]pyrimidine-7-carbonyl}-6-methyl-N-(1-methylcyclopropyl)furo[2,3-d]pyrimidin-4-amine]	10 to 100
Cc1oc2ncnc(NC3(C)CC3)c2c1C(=O)NCCc1ccc(F)cc1 [Example 50, N-[2-(4-Fluorophenyl)ethyl]-6-methyl-4-[(1-methylcyclopropyl)amino]furo[2,3-d]pyrimidine-5-carboxamide]	10 to 100
Cc1oc2ncnc(NC3(C)CC3)c2c1C(=O)NCc1ccnn1C [Example 102, 6-Methyl-N-[(1-methyl-1H-pyrazol-5-yl)methyl]-4-[(1-methylcyclopropyl)amino]furo[2,3-d]pyrimidine-5-carboxamide]	10 to 100
Cc1oc2ncnc(NC3(C)CC3)c2c1C(=O)N1CCc2ccc(Cl)nc2C1 [Example 286, 5-(2-Chloro-5,6,7,8-tetrahydro-1,7-naphthyridine-7-carbonyl)-6-methyl-N-(1-methylcyclopropyl)furo[2,3-d]pyrimidin-4-amine]	10 to 100
Cc1oc2ncnc(NC3(C)CC3)c2c1C(=O)NCc1ncco1 [Example 713, 6-Methyl-4-[(1-methylcyclopropyl)amino]-N-(1,3-oxazol-2-ylmethyl)furo[2,3-d]pyrimidine-5-carboxamide]	10 to 100
COc1ncnc2c1CCN(C(=O)c1c(C)oc3ncnc(NC4(C)CC4)c13)C2 [Example 4, (4-Methoxy-5,8-dihydropyrido[3,4-d]pyrimidin-7(6H)-yl)(6-methyl-4-((1-methylcyclopropyl)amino)furo[2,3-d]pyrimidin-5-yl)methanone]	10 to 100
Cc1oc2ncnc(NC3(C)CC3)c2c1C(=O)NCc1cncn1C [Example 115, 6-Methyl-N-[(1-methyl-1H-imidazol-5-yl)methyl]-4-[(1-methylcyclopropyl)amino]furo[2,3-d]pyrimidine-5-carboxamide]	100 to 1000
Cc1oc2ncnc(NC3(C)CC3)c2c1C(=O)NCc1ccnc(C(C)C)n1 [Example 644, 6-Methyl-4-[(1-methylcyclopropyl)amino]-N-{[2-(propan-2-yl)pyrimidin-4-yl]methyl}furo[2,3-d]pyrimidine-5-carboxamide]	10 to 100
Cc1oc2ncnc(NC3(C)CC3)c2c1C(=O)NCc1ccc(F)cc1 [Example 48, N-[(4-Fluorophenyl)methyl]-6-methyl-4-[(1-methylcyclopropyl)amino]furo[2,3-d]pyrimidine-5-carboxamide]	10 to 100
COc1cccc(CNC(=O)c2c(C)oc3ncnc(NC4(C)CC4)c23)c1 [Example 246, N-[(3-Methoxyphenyl)methyl]-6-methyl-4-[(1-methylcyclopropyl)amino]furo[2,3-d]pyrimidine-5-carboxamide]	10 to 100
Cc1oc2ncnc(NC3(C)CC3)c2c1C(=O)NCC1CC1 [Example 746, N-(Cyclopropylmethyl)-6-methyl-4-[(1-methylcyclopropyl)amino]furo[2,3-d]pyrimidine-5-carboxamide]	10 to 100
Cc1oc2ncnc(NC3(C)CC3)c2c1C(=O)NCCN=S(C)(C)=O [Example 756, N-(2-{[Dimethyl(oxo)-λ^6-sulfanylidene]amino}ethyl)-6-methyl-4-[(1-methylcyclopropyl)amino]furo[2,3-d]pyrimidine-5-carboxamide]	100 to 1000
Cc1cc(C)nc(CNC(=O)c2c(C)oc3ncnc(NC4(C)CC4)c23)n1 [Example 459, N-[(4,6-Dimethylpyrimidin-2-yl)methyl]-6-methyl-4-[(1-methylcyclopropyl)amino]furo[2,3-d]pyrimidine-5-carboxamide]	10 to 100
Cc1oc2ncnc(NC3(C)CC3)c2c1C(=O)N(C)Cc1ccsc1 [Example 223, N,6-Dimethyl-4-[(1-methylcyclopropyl)amino]-N-(thiophen-3-ylmethyl)furo[2,3-d]pyrimidine-5-carboxamide]	10 to 100
Cc1oc2ncnc(NC3(C)CC3)c2c1C(=O)N1CCc2cnccc2C1 [Example 668, 6-Methyl-N-(1-methylcyclopropyl)-5-(1,2,3,4-tetrahydro-2,6-naphthyridine-2-carbonyl)furo[2,3-d]pyrimidin-4-amine]	10 to 100
Cc1oc2ncnc(NC3(C)CC3)c2c1C(=O)NCc1ccc(N2CCOCC2)cc1 [Example 184, 6-Methyl-4-[(1-methylcyclopropyl)amino]-N-{[4-(morpholin-4-yl)phenyl]methyl}furo[2,3-d]pyrimidine-5-carboxamide]	10 to 100
